Measured values published in patent publication US6825180B2, “Pyridopyrimidine compounds and their uses” (Cell Therapeutics, Inc., priority 2001, dated 2004).
Where “and” joins values, the source holds several entries; their conditions need not be identical. Equal entries are not always repeated. Structures can show the parent of a compound that is named as a salt.

What was measured:
IL-12 signaling [1] = test: Modified acute assay; format: cell-based; conditions: T-cell, 72 h, purified splenic T cells, anti-CD3 or lectin stimulation, Interferon-γ by ELISA
Method: The compounds of Examples 3-10 were tested in a modified acute assay which is used to screen for compounds that perturb IL-12 signaling. The assay measures the biological effects of compounds on IL-12 signaling during the differentiation of T1 responses rather than the outcome of differentiation, as measured using a T1 Differentiation Assay. Purified splenic T cells were stimulated either by crosslinking their T cell receptors with immobilized anti-CD3 antibody or by binding with a soluble lectin (e.g. Conconavalin A). The cells were incubated for 72 hours after which time supernatants are collected and relative Interferon-γ amounts determined by ELISA. The Modified Acute Assay measured a directed IL-12 response derived from a population of cells in a variety of activation states and can be thought of as a more stochastic response.

IL-12 signaling [2] = test: IL-12 dependent in vitro T-helper cell (Th1) differentiation assay; format: cell-based; conditions: inhibition of IL-12 induced Th1 differentiation as defined by IFN-γ production upon secondary stimulation with anti-CD3 alone, splenic T cells, seven days culture
Method: This example illustrates the inventive compounds' ability to suppress Th1 differentiation in vitro by blocking IL-12 signaling. The compounds from Examples 1, 2, 6, and 7 were tested in an IL-12 dependent in vitro T-helper cell differentiation assay as described in LeGross et al., J. Exp. Med., 172:921-929 (1990). Recombinant IL-12 was used to induce Th1 differentiation. Splenic T cells were purified utilizing the antibodies RA3-3A1/6.1 (anti-B220), J11d and MAR18.5 (anti-rat kappa chain) to deplete the B cells by magnetic bead separation, as described in Coon et al, J. Immuno., 163:6567-6574 (1989). Splenic T cells were stimulated at 5×10^5/ml with insoluble anti-CD3 alone (145-2C11, Pharmingen, San Diego, Calif.), or anti-CD3 and 5 U/ml IL-12, with and without each inventive compound. After seven days, equal numbers of viable cells were restimulated for 24 hours with anti-CD3 without the inventive compounds, and the supernatants were collected and assayed for IFN—γ production. IFN-γ and IL-4 levels were measured by ELISA test specific for IFN-γ and IL-4.
Th1 differentiation was induced by culturing anti-CD3 stimulated T cells in the presence of exogenous IL-12. […] It was observed that the presence of the tested compounds during T cell activation inhibited Th1 differentiation, which had been enhanced by the addition of exogenous IL-12. The values in the “IC50 μM” column were determined by measuring the inhibition of IL-12 induced Th1 differentiation as defined by IFN-γ production upon secondary stimulation with anti-CD3 alone. None of the compounds affected the viability or recovery of T cells after one week of culture.

Cc1cc(C)c2c(=O)n(CCCC[C@@H](C)O)c(=O)n(C)c2n1 [Example 8, (R)-3-(5-Hydroxyhexyl)-1,5,7-trimethylpyrido[2,3-d]pyrimidine-2,4(1H,3H)-dione]
IC50 (IL-12 signaling [1]): 33 µM

Cc1cc(=O)c2c(=O)n(CCCC[C@@H](C)O)c(=O)n(C)c2[nH]1 [Example 1, (R)-1,7-Dimethyl-3-(5-hydroxyhexyl)pyrido[2,3-d]pyrimidine-2,4,5(1H,3H,8H)-trione]
IC50 (IL-12 signaling [2]; T-cell, 168 h): 19 µM
IC50 (IL-12 signaling [2]): 24 µM and 28 µM

CNc1cc(C)nc2c1c(=O)n(CCCC[C@@H](C)O)c(=O)n2C [Example 3, (R)-1,7-Dimethyl-3-(5-hydroxyhexyl)-5-(N-methylamino)pyrido[2,3-d]pyrimidine-2,4(1H,3H)-dione]
IC50 (IL-12 signaling [1]): < 10 µM

Cc1cc(=O)c2c(=O)n(CCCC[C@@H](C)N(C)C)c(=O)n(C)c2[nH]1 [Example 6, (R)-1,7-Dimethyl-3-(5-(N,N-dimethylamino)hexyl)pyrido[2,3-d]pyrimidine-2,4,5(1H,3H,8H)-trione, Acetic Acid Salt]
IC50 (IL-12 signaling [2]; T-cell, 168 h): 14 µM
IC50 (IL-12 signaling [2]; Acetic Acid Salt): 16 µM
IC50 (IL-12 signaling [1]): 9 µM

Cc1cc(N(C)C)nc2c1c(=O)n(CCCC[C@@H](C)O)c(=O)n2C [Example 10, (R)-1,5-Dimethyl-7-(N,N-dimethylamino)-3-(5-hydroxyhexyl)-2,4-pyrido[2,3-d]pyrimidine-2,4(1H,3H)-dione]
IC50 (IL-12 signaling [1]): 6 µM

Cc1cc(=O)[nH]c2c1c(=O)n(CCCC[C@@H](C)O)c(=O)n2C [Example 9, (R)-1,5-Dimethyl 3-(5-hydroxyhexyl)pyrido[2,3-d]pyrimidine-2,4,7(1H,3H,8H)-trione]
IC50 (IL-12 signaling [1]): > 40 µM

Cc1cc(=O)c2c(=O)n(CCCC[C@@H](C)O)c(=O)n(C)c2n1Cc1ccccc1 [Example 5, (R)-8-Benzyl-1,7-dimethyl-3-(5-hydroxyhexyl)pyrido[2,3-d]pyrimidine-2,4,5(1H,3H,8H)-trione]
IC50 (IL-12 signaling [1]): 8 µM

Cc1cc(N(C)C)c2c(=O)n(CCCC[C@@H](C)N(C)C)c(=O)n(C)c2n1 [Example 7, (R)-1,7-Dimethyl-5-(N,N-dimethylamino)-3-(5-(N,N-dimethylamino)hexyl)pyrido[2,3-d]pyrimidine-2,4(1H,3H)dione]
IC50 (IL-12 signaling [2]; T-cell, 168 h): > 40 µM
IC50 (IL-12 signaling [1]): 26 µM

CO[C@H](C)CCCCn1c(=O)c2c(=O)cc(C)[nH]c2n(C)c1=O [Example 2, (R)-1,7-Dimethyl-3-(5-methoxyhexyl)pyrido[2,3-d]pyrimidine-2,4,5(1H,3H,8H)-trione]
IC50 (IL-12 signaling [2]; T-cell, 168 h): 7 µM
